According to patent publication US20230277491A1, “PHARMACEUTICAL COMBINATION COMPRISING GLYCOLIC ACID AND L-ALANINE” (priority 2020, published 2023):

How the values were obtained:
[1] = tested on: DJ-1 RNAi depleted HeLa cells; settings: DJ-1 RNAi depleted HeLa cells or paraquat challenge; cited from earlier work
patients with ALS = assay: Individualised clinical trials in ALS patients: therapeutic effect (creatine kinase, gripping force, muscle strength); settings: human patients, in some cases
Procedure: Gripping force measured in kilograms with the help of a Digital Hand Dynamometer once a week to every two weeks.
Evolution of the muscle strength on the right arm was measured once a week to every two weeks using the Janda Muscle Strength Scale.
Patients with ALS were recruited for the study and agreed to all legal regulations surrounding the curative attempt. Potential side effects were closely monitored. Liver and kidney values were checked once a week (1 day after dosing), in order to monitor whether any unwanted side effects were observed. To test the therapeutic effect, the evolution of the ALS score and strength evolution were measured over time.
All patients also received 6 grams of L-Alanine per day.
The above-mentioned treatment regime was conducted in 4 patients, either with FUS, TARDBP or SOD-1 mutations underlying their ALS. […] The patients were treated between 4 months and 17 months.

dopaminergic neurons [2] = assay: Survival of dopaminergic neurons with paraquat 12.5 μM challenge (Example 5, FIGS. 19, 20); type: cell-based, mouse; settings: for number of TH positive neurons normalized to the control treatment: FIG. 19
Procedure: Dopaminergic neurons were isolated and plated at a concentration of 1.000.000 cells/ml (100 μl/well) in a 96 well plate and cultured in medium with one or more of the various factors indicated, as described in the examples below. The survival of dopaminergic neurons in the presence and absence of various agents of the invention, either with or without paraquat challenge, is shown by the number of TH positive neurons normalized to the control treatment.
Dopaminergic neurons were isolated and plated at a concentration of 1.000.000 cells/ml (100 μl/well) in a 96 well plate. After 3-4 hours incubation at 37° C., 20 μl of medium was removed from each well. (VF=80 μl). Changes in medium and start point of the treatment were on the following day in vitro (DIV). The following protocol was employed to assess the survival of dopaminergic neurons in the presence and absence of various agents of the inventive combination, either with or without paraquat challenge. • DIV.1: Change half of medium N2 (40 μl) with fresh medium N2. • DIV.3: Change half of the medium and start with medium (control) or with medium A containing PB (0.15 mM) and TUDCA (0.5 mM), or with Medium A containing GA (normally 1 mM, 3 mM, or 10 mM) or with Medium A containing GA (1 mM or 3 mM) and PB (0.15 mM) or with Medium A containing GA (5 mM) and TUDCA (0.5 mM) or with Medium A containing PB (0.15 mM). Medium A is N2 medium but without FBS and N2-Supplement. • DIV.5: Second round of control or treatment with different treatments. Half of the medium (40 μl) was replaced by fresh medium A with the different agents. • DIV.7: Paraquat 12.5 μM treatment starts alone or in combination with the treatments explained above. Half of the medium (40 μl) was replaced by fresh medium A with the different treatment combinations or without (control). • DIV.9: Second day of treatment with Paraquat (PQ) 12.5 μM in addition to the other treatments as explained above. • DIV.11: Fixation 2% of PFA during 20 min at 37° C. or overnight at 4° C.
The effect of the different treatments on dopaminergic neurons survival upon exposure to paraquat was assessed through of TH+ neurons after treatment. Briefly, neurons were fixed using 2% paraformaldehyde for immunocytochemical analysis after treatment. Dopaminergic TH^+ neurons per well were identified and counted using an inverted fluorescence microscope (Olympus) under a 20× objective.

HeLa cells = assay: NAD(P)H live-cell microscopy; type: cell-based; settings: 5 mM, FIG. 13
Procedure: All values were referenced to the value obtained before substance addition.
NAD(P)H live-cell microscopy on HeLa cells was performed as previously described. Briefly, NAD(P)H fluorescence intensity time series were performed on a ZEISS LSM880 inverted confocal equipped with an incubation chamber to maintain 37 Celsius degree and 5% of CO2. […] In order to maximize the transmission efficiency of the system in excitation and detection and reduce the aberrations due to the watery environment, a ZEISS Plan C-ApoChromat 40×/1.2 Water lens with depth compensating correction collar was used. […] The sampling factor in XY (pixel size) of each image was equal to 208 nm, which lead to a final resolution of approximately 600 nm. For each image a volume of 5 μm around the specimen central plane was taken by acquiring 3 planes separated by a Z-step of 2.5 μm.
Time series measurements were obtained with 5 min time resolution. Fluorescence intensity levels were extracted using FIJI Image Analysis Freeware

[3] = human, in vivo, 15 weeks
From the text: Potential side effects were closely monitored.

PARK-7 −/− HeLa cells = assay: Cell growth of PARK-7 −/− HeLa cells; type: cell-based, human; settings: 5 mM, FIG. 16
Procedure: GA enhances cell proliferation in PARK-7 −/− HeLa cells. […] Knocking-down PARK-7 with CRISP/Cas-9 leads to a reduced cell proliferation when compared to WT cells. […] Treatment with GA increases cell proliferation in HeLa cells.
Cell growth was determined by two different methods. The first method (WST1-Assay) was used to analyze cell growth at different time points using the same plates: 500 cells of 8 different PARK7 KO clones and HeLa Kyoto wild type cells were seeded in 96 well plates (6 wells/line). For each time point (0 h, 48 h, 122 h, and 144 h), WST1 was added to the cells according to the manufacturers instructions and incubated for 30 min at 37° C. Absorbance was measured at 450 nm and 620 nm using an EnVision Plate Reader (PerkinElmer).
The second method was used to analyze the rescue effect of GA and DL. Briefly, HeLa cells were seeded and treated with medium containing distilled water, 5 mM GA, or 5 mM DL. 48 hours later, the number of living cells was calculated with the help of an automated cell counter (ThermoFischer, USA).
HeLa-Kyoto PARK7 KO clones had been kindly provided by Martin Stewart (Koch Institute, MIT, Cambridge, USA). Briefly, cells were electroporated with the NEON device (Invitrogen) using a sgRNA-Cas9-NLS complex targeting human PARK7 at exon 1. […]

dopaminergic neurons [4] = settings: after DJ-1 knock-out or paraquat treatment; cited from earlier work

O=C(O)CO [GA, 2-hydroxyethanoic acid]
mitochondrial potential [1]: maintain or rescue mitochondrial potential
GA dose at which efficacious doses were first observed (patients with ALS): above 70 mg/kg
number of TH positive neurons normalized to the control treatment (dopaminergic neurons [2]; PQ 12.5 μM + 1 mM GA): 0.65
number of TH positive neurons normalized to the control treatment (dopaminergic neurons [2]; PQ 12.5 μM + 3 mM GA): 0.71
survival of dopaminergic neurons (rescue) (dopaminergic neurons [2]; PQ 12.5 μM + 5 mM GA alone): certain rescue
mitochondrial NAD(P)H production (HeLa cells): increases mitochondrial NAD(P)H production
GA dose at which reactive instant feces deposition was observed [3]: above 120 mg/kg
GA dose leading to reactive instant feces deposition [3]: higher than 150 mg/kg
cell proliferation (number of cells after 48 hours) (PARK-7 −/− HeLa cells): rescues cell proliferation defects
survival of dopaminergic neurons (dopaminergic neurons [4]): rescued the survival of dopaminergic neurons
